The first experiment concerns the target full-length recombinant human FYN A (Homo sapiens (Human), UniProt P06241). The experiment in a line: ADP-Glo Kinase Assay of FYN kinase inhibition. In kind it is biochemical. Conditions: primary screen, initial compounds. A digest of the protocol: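 ADP-Glo read-out of peptide phosphorylation after 90 min RT with 12.5 pmol ATP and 100 pg 12-mer substrate. Enzyme was N-GST full-length human FYN A from insect cells, 3 pg, pre-incubated 30 min with compound, 10 points from 10 μM top, 3-fold steps; IC50 from curve.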
For orientation: ADP-Glo first removes unused ATP, then detects ADP through luciferase.
full-length recombinant human FYN A, sequence (P06241 whole entry): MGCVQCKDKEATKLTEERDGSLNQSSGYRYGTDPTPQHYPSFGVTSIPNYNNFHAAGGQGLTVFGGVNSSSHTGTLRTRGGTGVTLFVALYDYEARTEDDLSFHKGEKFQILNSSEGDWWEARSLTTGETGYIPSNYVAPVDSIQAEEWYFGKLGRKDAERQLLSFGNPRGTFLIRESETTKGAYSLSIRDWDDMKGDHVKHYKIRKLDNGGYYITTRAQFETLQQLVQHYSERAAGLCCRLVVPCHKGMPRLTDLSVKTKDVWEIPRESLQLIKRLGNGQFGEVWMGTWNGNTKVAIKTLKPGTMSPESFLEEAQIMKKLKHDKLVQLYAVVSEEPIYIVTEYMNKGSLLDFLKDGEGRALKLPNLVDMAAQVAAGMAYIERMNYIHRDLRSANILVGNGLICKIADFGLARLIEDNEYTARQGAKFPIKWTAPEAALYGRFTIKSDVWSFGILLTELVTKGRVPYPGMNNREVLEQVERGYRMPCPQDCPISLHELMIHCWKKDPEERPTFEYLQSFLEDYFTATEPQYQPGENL
For the compound `c1csc(-c2cn3c(-c4ccsc4)cnc3cn2)c1` [Compound 200, 6-(2-thienyl)-3-(3-thienyl)imidazo [1,2-a]pyrazine], the IC50 stood at 2250 nM.

Regarding `OCc1cccc(-c2cnc3ccc(NCc4cccc(Cl)c4)nn23)c1` [229_0223_0291, [3-[6-[(3-chlorophenyl)methylamino]imidazo[1,2-b]pyridazin-3-yl]phenyl] methanol], the IC50 was 5110 nM. Same read-out and setting: for `O=C(NCCO)c1cccc(-c2ccc3ncc(-c4ccc5c(c4)OCO5)n3n2)c1` [Compound 369, 3-[3-(1,3-benzodioxol-5-yl)imidazo[1,2-b]pyridazin-6-yl]-N-(2-hydroxyethyl) benzamide] the value was 367 nM; for `CS(=O)(=O)Nc1cccc(-c2ccc3ncc(-c4cccs4)n3n2)c1` [Compound 359, N-[3-[3-(2-thienyl)imidazo [1,2-b]pyridazin-6-yl]phenyl] methane-sulfonamide], 1210 nM; for `c1ccc(CNc2nn3c(-c4cccnc4)cnc3s2)cc1` [Compound 584, N-benzyl-5-(3-pyridyl)imidazo [2,1-b][1,3,4] thiadiazol-2-amine], 839 nM. In the case of `CNc1cncc(-c2ccc3[nH]ccc3c2)n1` [Compound 445_0204, 6-(1H-indol-5-yl)-N-methyl-pyrazin-2-amine], the IC50 was found to be 14900 nM.

With `Oc1cccc(-c2cnc3cnc(-c4ccsc4)cn23)c1` [Compound 234, 3-[6-(3-thienyl)imidazo [1,2-a]pyrazin-3-yl]phenol], the IC50 stood at 2520 nM. Consider `CN1CCN(c2ccc(Nc3cc4c(cn3)cc(-c3cccc(C(F)(F)F)c3)n4C)cc2)CC1` [Compound 590, 1-methyl-N-[4-(4-methylpiperazin-1-yl)phenyl]-2-[3-(trifluoromethyl)phenyl]pyrrolo [3,2-c]pyridin-6-amine], for which the IC50 was determined as 30000 nM. As for `COc1cc(-c2cc(-c3ccccc3)cnc2N)ccc1O` [382_0314_0061, 4-(2-amino-5-phenyl-3-pyridyl)-2-methoxy-phenol], the 50% inhibitory concentration (IC50) came out at 1480 nM. As for `CC(=O)Nc1cccc(-c2ccc3ncc(-c4cccc(O)c4)n3n2)c1` [Compound 406, N-[3-[3-(3-hydroxyphenyl)imidazo[1,2-b]pyridazin-6-yl]phenyl] acetamide], the half-inhibitory concentration (IC50) was 1650 nM. The same measure, in the same setting: for `CCOc1cccc(-c2cn3c(-c4ccc(O)c(OC)c4)cnc3cn2)c1` [388_0314_0205, 4-[6-(3-ethoxyphenyl)imidazo[1,2-a]pyrazin-3-yl]-2-methoxy-phenol] the value was 1360 nM. Consider `COc1ccc(OC)c(-n2c(-c3ccc(F)cc3)cn3c4c(=O)[nH]c(=O)n(C)c4nc23)c1` [Compound 599, 8-(2,5-dimethoxy-phenyl)-7-(4-fluorophenyl)-1-methyl-3H-imidazo [1,2-g]purine-2,4-dione], for which the concentration for half-maximal inhibition (IC50) stood at 18400 nM. Same read-out and setting: as for `Oc1cccc(-c2cnc3cnc(-c4ccco4)cn23)c1` [Compound 211, 3-[6-(2-furyl)imidazo [1,2-a]pyrazin-3-yl]phenol], the figure is 6110 nM. On to `Nc1ccc(-c2cn3c(-c4ccc5c(c4)OCO5)cnc3cn2)cn1` [Compound 247, 5-[3-(1,3-benzodioxol-5-yl)imidazo[1,2-a]pyrazin-6-yl]pyridin-2-amine], for which the IC50 was 10200 nM. With `COc1cc(-c2cc(-c3cccc(F)c3)cnc2N)cc(OC)c1OC` [382_0087_0313, 5-(3-fluorophenyl)-3-(3,4,5-trimethoxy-phenyl)pyridin-2-amine], the IC50 amounted to 1520 nM. On to `c1cncc(-c2ccc3ncc(-c4ccc5c(c4)OCO5)n3n2)c1` [Compound 360, 3-(1,3-benzodioxol-5-yl)-6-(3-pyridyl)imidazo [1,2-b]pyridazine], for which the half-maximal inhibitory concentration (IC50) amounted to 688 nM. As to `c1ccc(-c2ccc3ncc(-c4ccncc4)n3n2)cc1` [Compound 340, 6-phenyl-3-(4-pyridyl)imidazo [1,2-b]pyridazine], the IC50 worked out at 229 nM. On the same count and under the same terms, for `OCc1ccc(-c2cnc3ccc(-c4cccc(O)c4)nn23)cc1` [Compound 435, 3-[3-[4-(hydroxymethyl)phenyl]imidazo [1,2-b]pyridazin-6-yl]phenol] the value was 1140 nM; for `CC(=O)Nc1cccc(-c2ccc3ncc(-c4ccncc4)n3n2)c1` [Compound 409, N-[3-[3-(4-pyridyl)imidazo [1,2-b]pyridazin-6-yl]phenyl] acetamide], 598 nM.

For the compound `COc1cc(-c2n[nH]c3nccc(-c4ccc(CO)cc4)c23)cc(OC)c1OC` [Compound 519, [4-[3-(3,4,5-trimethoxy-phenyl)-1H-pyrazolo[3,4-b]pyridin-4-yl]phenyl] methanol], the IC50 was 5380 nM. As to `COc1cc(-c2cnc3ccc(Cc4ccc(F)cc4)nn23)ccc1O` [Compound 480, 4-[6-[(4-fluorophenyl)methyl]imidazo [1,2-b]pyridazin-3-yl]-2-methoxy-phenol], the IC50 came out at 2090 nM.

On to `Cn1cc(-c2ccc3ncc(-c4cccc(O)c4)n3n2)cn1` [Compound 397, 3-[6-(1-methylpyrazol-4-yl)imidazo[1,2-b]pyridazin-3-yl]phenol], for which the IC50 was found to be 388 nM. As to `COc1ccc(-c2cnc3ccc(-c4cnn(C)c4)nn23)cc1OC` [Compound 391, 3-(3,4-dimethoxy-phenyl)-6-(1-methylpyrazol-4-yl)imidazo[1,2-b]pyridazine], the half-maximal inhibitory concentration (IC50) came to 367 nM. `OCc1ccc(-c2cnc3ccc(NCc4ccc(F)cc4)nn23)cc1` [229_0224_0285, [4-[6-[(4-fluorophenyl)methylamino]imidazo[1,2-b]pyridazin-3-yl]phenyl] methanol]: the IC50 was determined as 2440 nM. Regarding `CC(=O)Nc1cccc(-c2cnc3ccc(-c4ccc(N(C)C)cc4)nn23)c1` [Compound 290, N-[3-[6-(4-dimethylamino-phenyl)imidazo [1,2-a]pyridazin-3-yl]phenyl] acetamide], the IC50 turned out to be 1100 nM. In the case of `CNc1ccc2ncc(-c3ccc(F)cc3)n2n1` [Compound 437_0339, 3-(4-fluoro-phenyl)-N-methyl-imidazo[1,2-b]pyridazin-6-amine], the IC50 came out at 3260 nM. In the case of `O=C(NCCO)c1cccc(-c2ccc3ncc(-c4cccc(O)c4)n3n2)c1` [Compound 457, N-(2-hydroxyethyl)-3-[3-(3-hydroxyphenyl)imidazo[1,2-b]pyridazin-6-yl]benzamide], the IC50 amounted to 352 nM. Consider `COc1ccc(-c2cnc3ccc(-c4ccccc4OC)nn23)cc1OC` [Compound 333, 3-(3,4-dimethoxy-phenyl)-6-(2-methoxyphenyl) imidazo[1,2-b]pyridazine], for which the half-inhibitory concentration (IC50) was found to be 3120 nM. As to `O=C(NCCO)c1ccc(-c2cn3c(-c4ccc(Oc5ccccc5)cc4)cnc3cn2)cc1` [Compound 219, N-(2-hydroxyethyl)-4-[3-(4-phenoxyphenyl)imidazo[1,2-a]pyrazin-6-yl]benzamide], the IC50 was 623 nM.

As to `COc1cc(-c2cnc3cnc(-c4cccc(NS(C)(=O)=O)c4)cn23)cc(OC)c1OC` [388_0087_6488, N-[3-[3-(3,4,5-trimethoxyphenyl)imidazo[1,2-a]pyrazin-6-yl]phenyl] methane-sulfonamide], the IC50 was 2800 nM. Still for that read-out and setting: for `COc1cncc(-c2cnc3sc(NCc4ccc5c(c4)OCO5)nn23)c1` [Compound 271, N-(1,3-benzodioxol-5-ylmethyl)-5-(5-methoxy-3-pyridyl)imidazo [2,1-b] [1,3,4]thiadiazol-2-amine] the value was 448 nM; for `CN1CCN(c2ccc(-c3cn4c(-c5ccsc5)cnc4cn3)cn2)CC1` [Compound 225, 6-[6-(4-methylpiperazin-1-yl)-3-pyridyl]-3-(3-thienyl)imidazo [1,2-a]pyrazine], 7050 nM; for `CN(C)C(=O)c1cccc(-c2cnc3sc(NCC4CC4)nn23)c1` [Compound 257, 3-[2-(cyclopropyl-methylamino)imidazo[2,1-d] [1,3,4]thiadiazol-5-yl]-N,N-dimethyl-benzamide], 977 nM.

In the case of `COc1cc(-c2ccnc3[nH]nc(C4CCNCC4)c23)ccc1O` [Compound 514, 2-methoxy-4-[3-(4-piperidyl)-1H-pyrazolo[3,4-b]pyridin-4-yl]phenol], the IC50 stood at 11900 nM.

As to `CCC(CO)Nc1ccc2ncc(-c3cc(OC)c(OC)c(OC)c3)n2n1` (stereo not drawn) [229_0153_0087, 2-[[3-(3,4,5-trimethoxy-phenyl)imidazo[1,2-b]pyridazin-6-yl]amino] butan-1-ol], the IC50 turned out to be 1280 nM.

The experiment is the same for the next values; noted with them: secondary screen, re-synthesized and expanded compounds.
In the case of `COc1cc(-c2cnc3sc(NCC4CCOCC4)nn23)ccc1O` [BF000717555, 2-methoxy-4-[2-(tetrahydro-pyran-4-ylmethyl-amino)-imidazo[2,1-b][1,3,4]-thiadiazol-5-yl]phenol], the IC50 stood at 710 nM.

Take `CC(=O)Nc1cccc(-c2cnc(N)c(-c3ccc(O)cc3)c2)c1` [BF000313562, N-[3-[6-amino-5-(4-hydroxy-phenyl)-3-pyridyl]-phenyl]-acetamide]: the IC50 amounted to 898 nM. Turning to `CN(C)C(=O)c1cccc(-c2cnc3sc(NCC4CCOCC4)nn23)c1` [BF000715802, N,N-dimethyl-3-[2-(tetra-hydropyran-4-ylmethyl-amino)-imidazo[2,1-b][1,3,4]-thiadiazol-5-yl]benzamide], the half-inhibitory concentration (IC50) was found to be 1360 nM. Still for that read-out and setting: for `CC(=O)Nc1cccc(-c2cnc3ccc(N[C@H](CO)C(C)C)nn23)c1` [BF000146300, N-[3-[6-[[(1S)-1-(hydroxy-methyl)-2-methyl-propyl]-amino]-imidazo[1,2-b]pyridazin-3-yl]-phenyl]acetamide] the value was 792 nM; for `CCCNc1ccc2ncc(-c3cccc(C(C)=O)c3)n2n1` [BF000147088, 1-[3-[6-(propyl-amino)-imidazo[1,2-b]pyridazin-3-yl]phenyl]-ethanone], 406 nM. Regarding `CC(=O)Nc1cccc(-c2cnc3ccc(NC4CCOCC4)nn23)c1` [BF000146155, N-[3-[6-(tetra-hydropyran-4-ylamino)-imidazo[1,2-b]pyridazin-3-yl)phenyl]-acetamide], the concentration for half-maximal inhibition (IC50) turned out to be 397 nM. Consider `COc1ccc(-c2cnc3ccc(NCc4ccccn4)nn23)cc1OC` [BF000147233, 3-(3,4-dimethoxy-phenyl)-N-(2-pyridyl-methyl)-imidazo[1,2-b]pyridazin-6-amine], for which the IC50 was 494 nM.

The term IC50 denotes the concentration needed to halve the response being measured.

Values taken from US10688093B2, “Methods, compositions, and uses of novel Fyn kinase inhibitors” (priority 2015, dated 2020).
